Assay results published in patent publication US5444042A, “Method of treatment of neurodegeneration with calpain inhibitors” (Cortex Pharmaceuticals, priority 1994, dated 1995).
Blank lines part the entries; values can stand above or below the molecule they belong to. Where a SMILES comes first, the peptide text is derived from it. [ ]: non-standard residue; d: D form. The star is where a group is joined. Nle = CCCC[C@H](N)C(=O)O; Cbz = O=C(OCc1ccccc1)*; CH2Cl = ClC*

What was measured:
Calpain within platelets = experiment: Platelet membrane permeation assay, spectrin proteolysis (Examples 4A, 4B); assay type: cell-based, rat; details: 100 μM, A23187 1 μM
Method in brief: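 Rat (Sprague-Dawley) platelets at 10^7 cells/ml in HEPES buffer pH 7.4, preincubated 5 min with inhibitor, then 5 min with 1 μM A23187 to activate calpain. Spectrin proteolysis assessed by SDS-PAGE and anti-spectrin immunoblot, quantified by densitometry.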

Calpain I [1] = molecular target: Calpain I (Rattus norvegicus, UniProt P97571); experiment: Kapp/[I] progress curve method, rat Calpain I (Table 1C); assay type: biochemical; details: Suc-leu-tyr-amidomethylcoumarin
Description: (§1) The Halo-Ketone Peptides, like the substituted isocoumarins, are irreversible inhibitors of Calpain. We determined the Kapp /[I] values for various members of this class of compounds against Calpains I and II. For comparison, we also determined these values against the additional thiol proteases Papain and Cathepsin B for at least one Halo-Ketone Peptide.
(§2) We assayed Calpain I and II using Suc-leu-tyr-amidomethylcoumarin. Papain was assayed using benzoyl-arg-4-nitroanilide, and Cathepsin B (bovine) was assayed using CBZ-lys-4-nitrophenyl ester. We followed the progress curve method of Tian and Tsou, Biochemistry, 21:1028-1032 (1982), the disclosure of which is hereby incorporated by reference, to derive kinetic data. Briefly, this method makes use of the equation: [formula] where [P.infin. ] represents the concentration of product formed at a time approaching infinity, A is the Kapp in the presence of substrate (S), K is the Michaelis constant and [Y] is the concentration of the inhibitor. Since [S] and [Y] are known and V and K can be determined, Kapp can be readily determined.

Calpain II = experiment: Kapp/[I] progress curve method, Calpain II (Table 1C); assay type: biochemical; set-up: unit not given here; details: Rabbit Calpain II, Suc-leu-tyr-amidomethylcoumarin
Description: as §1, §2

[2] = test system: Calpain in crude brain extracts; experiment: Ca2+-stimulated spectrin proteolysis in crude brain extracts (Example 2); assay type: biochemical; details: for inhibition of spectrin proteolysis in crude brain extracts: 100 μM
Method in brief: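 Brain tissue was homogenized in 10 mM Tris pH 7.4, 0.32 M sucrose, 1 mM EGTA and 1 mM DTT, and nuclei and debris were removed. Calpain activity was scored as Ca^2+-stimulated proteolysis of endogenous spectrin.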

hippocampal slices [3] = experiment: Hippocampal slice evoked potential recovery after anoxia (Example 7B); assay type: cell-based, rat
Description: As in Example 7A, hippocampal slices (400 μm) were prepared from Sprague Dawley rats (6-7 weeks) and maintained in an interface chamber at 35° C. using conventional techniques, i.e. the lower surface of the slice received a constant perfusion (0.5 ml/min) of an artificial cerebrospinal fluid (ACSF), while the upper surface was exposed to a moist atmosphere of O2 :CO2 (95%:5%) exchanged at a rate of 2 L/min. The ACSF medium contains (in mM): NaCl (124), KCl (3), KHPO4 (1.25), MgSO4 (2.5), CaCl2 (3.4), NaHCO3 (26) and D-Glucose (10). Field excitatory post-synaptic responses were recorded from stratum radiatum of CA1b in response to stimulation of Schaffer-commissural fibers in CA1a or CA1c. The depth of the recording electrode was optimized and evoked responses were collected at a rate of one evoked response every 30 seconds.
After establishing a stable baseline of evoked responses (approximately 10 minutes), ACSF containing Calpain Inhibitor was washed into the chamber and slices were incubated for a period of one hour. After incubation, evoked responses were again recorded and the change in the amplitude of the responses from baseline levels was noted. No effect of the inhibitors tested on baseline evoked responses was observed.
For anoxia experiments, incubation in the drug-containing medium was followed by replacement of the O2 :CO2 (95%:5%) atmosphere with N2 :CO2 (95%:5%). Slices were exposed to this anoxic environment until disappearance of the pre-synaptic fiber volley and for two minutes (severe anoxia) longer (total time in anoxic environment approximately 7-8 minutes in control case). Effects of Calpain Inhibitors on the functional recovery of the slices after the anoxic episode were then measured. Recovery of the evoked potential (EPSP) slope and amplitude by the drug treated slices can be compared to control slices to determine the relative efficacy of various Calpain Inhibitors.

hippocampal slices [4] = experiment: Hippocampal slice survival after 10 min anoxia (Example 7A); assay type: cell-based, rat
Description: Hippocampal slices (400 um) were prepared from Sprague Dawley rats (6 to 7 weeks) and maintained in an interface chamber at 35° C. using conventional techniques, i.e., the lower surface of the slice received a constant perfusion (0.5 ml/min) of ACSF, while the upper surface was exposed to a moist atmosphere of O2 :CO2 (95%:5%) exchanged at a rate of 2 L/min. The ACSF medium contains (in mM): NaCl (124), KCl (3), KHPO4 (2.5), CaCl (3.4), NaHCO3 (26) and D-Glucose (10). Field excitatory post-synaptic responses were recorded from stratum radiatum of CAlb in response to stimulation of Schaffer-commissural fibers in CAla or CAlc. The depth of the recording electrode was optimized and evoked responses were collected at a rate of one evoked response every 30 seconds.
For the initial screening procedure, 14 to 16 slices are harvested from the hippocampus of a single rat and placed in a common ACSF bath. Each slice is tested in sequence to determine the magnitude of its pre-anoxic evoked response. Five stimulation pulses (each 0.1 ms (millisecond) in duration) were presented over a 15 second interval. The largest evoked response was noted and recorded for each slice.
After the one hour drug incubation period, the oxygen-enriched atmosphere of the chamber was made anoxic by substituting nitrogen for oxygen (N2 =95%; CO^2 =5%). The slices were retained in this anoxic environment for 10 minutes, following which the oxygen-enriched atmosphere (O^2 =95%; CO2 =5%) was reestablished.
The slices were given the opportunity to recover for 30 minutes following reoxygenation whereupon each was stimulated and the maximum evoked potential determined, as described above during the pre-anoxia period. Those slices which, after anoxia, produced a maximum evoked potential of greater than 50% of that observed prior to anoxia were defined as surviving slices.

N18-RE-105 cells = experiment: Glutamate-induced cell death, MTT conversion (Example 5); assay type: cell-based; details: 5 mM glutamate, inhibitor 3 μg/ml, 19 hours
Description: Stock cultures of N18-RE-105 cells were maintained in Dulbecco's modified Eagle's medium (DMEM) containing 10% fetal bovine serum (FBS) and supplemented with hypoxanthine, aminopterin and thymidine (HAT). Subconfluent cultures were split and plated into 96-well plates. Twenty-four hours after plating the cells were exposed to fresh media containing glutamate and various concentrations of Calpain inhibitors. Control cells were not treated with glutamate. Conversion of MTT was measured 19 hours later as described. Nineteen hours after the onset of exposure, cell viability was quantitated by measuring the extent to which the cells convert 3(4,5-dimethylthiazol-2-yl)-2-5-diphenyltetrazolium bromide (MTT) to a blue formazan product, which occurs in the mitochondria of living but not dead cells (Pauwels et al., 1988). A higher absorbance is indicative of greater cell viability.

[5] = test system: rats injected with kainic acid; experiment: Kainate-induced behavioral symptoms and convulsions (Example 8A); assay type: in vivo, rat; details: 12 mg/kg kainic acid i.p., 4.6 mg calpain inhibitor in DMSO i.p., observed six hours
Description: Rats (male Sprague-Dawley, 200±5 gms) were injected intraperitoneally with 12 mg/kg kainic acid in saline vehicle and ether 2001 μl DMSO (dimethylsulfoxide) or 4.6 mg calpain inhibitor dissolved in the same volume of DMSO.

Calpain I [6] = molecular target: T1, Calpain I (Homo sapiens, UniProt P07384); experiment: Kapp/[I] progress curve method, human Calpain I (Table 1C); assay type: biochemical; details: Suc-leu-tyr-amidomethylcoumarin
T1 sequence (P07384 1-714): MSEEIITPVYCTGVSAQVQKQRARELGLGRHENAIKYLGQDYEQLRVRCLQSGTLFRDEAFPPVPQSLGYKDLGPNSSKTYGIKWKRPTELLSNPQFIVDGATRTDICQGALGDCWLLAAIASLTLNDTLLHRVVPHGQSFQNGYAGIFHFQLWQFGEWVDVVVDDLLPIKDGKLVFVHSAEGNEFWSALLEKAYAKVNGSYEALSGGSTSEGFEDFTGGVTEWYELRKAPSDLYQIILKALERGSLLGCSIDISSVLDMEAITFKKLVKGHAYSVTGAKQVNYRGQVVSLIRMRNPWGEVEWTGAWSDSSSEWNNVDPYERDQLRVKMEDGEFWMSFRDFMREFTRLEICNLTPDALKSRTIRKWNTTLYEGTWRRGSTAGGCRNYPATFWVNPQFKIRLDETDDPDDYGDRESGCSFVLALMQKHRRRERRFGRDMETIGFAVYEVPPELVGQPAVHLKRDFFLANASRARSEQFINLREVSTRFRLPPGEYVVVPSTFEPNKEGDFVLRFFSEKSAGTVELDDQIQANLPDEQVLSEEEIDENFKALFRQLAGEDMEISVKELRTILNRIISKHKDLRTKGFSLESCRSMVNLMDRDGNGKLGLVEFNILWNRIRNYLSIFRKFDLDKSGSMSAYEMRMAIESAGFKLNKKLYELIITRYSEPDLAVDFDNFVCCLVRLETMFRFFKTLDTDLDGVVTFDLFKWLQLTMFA
T1 sequence (P04632 1-268 partner): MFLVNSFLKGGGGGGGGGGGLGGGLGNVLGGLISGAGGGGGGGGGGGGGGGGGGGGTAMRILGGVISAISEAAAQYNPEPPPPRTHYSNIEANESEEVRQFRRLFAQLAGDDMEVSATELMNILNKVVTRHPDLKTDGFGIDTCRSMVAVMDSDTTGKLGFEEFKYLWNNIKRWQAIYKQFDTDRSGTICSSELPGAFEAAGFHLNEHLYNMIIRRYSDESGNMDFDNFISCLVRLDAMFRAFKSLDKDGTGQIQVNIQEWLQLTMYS
Description: as §1, §2

Calpain I (Rattus norvegicus, UniProt P97571), sequence (P97571 whole entry): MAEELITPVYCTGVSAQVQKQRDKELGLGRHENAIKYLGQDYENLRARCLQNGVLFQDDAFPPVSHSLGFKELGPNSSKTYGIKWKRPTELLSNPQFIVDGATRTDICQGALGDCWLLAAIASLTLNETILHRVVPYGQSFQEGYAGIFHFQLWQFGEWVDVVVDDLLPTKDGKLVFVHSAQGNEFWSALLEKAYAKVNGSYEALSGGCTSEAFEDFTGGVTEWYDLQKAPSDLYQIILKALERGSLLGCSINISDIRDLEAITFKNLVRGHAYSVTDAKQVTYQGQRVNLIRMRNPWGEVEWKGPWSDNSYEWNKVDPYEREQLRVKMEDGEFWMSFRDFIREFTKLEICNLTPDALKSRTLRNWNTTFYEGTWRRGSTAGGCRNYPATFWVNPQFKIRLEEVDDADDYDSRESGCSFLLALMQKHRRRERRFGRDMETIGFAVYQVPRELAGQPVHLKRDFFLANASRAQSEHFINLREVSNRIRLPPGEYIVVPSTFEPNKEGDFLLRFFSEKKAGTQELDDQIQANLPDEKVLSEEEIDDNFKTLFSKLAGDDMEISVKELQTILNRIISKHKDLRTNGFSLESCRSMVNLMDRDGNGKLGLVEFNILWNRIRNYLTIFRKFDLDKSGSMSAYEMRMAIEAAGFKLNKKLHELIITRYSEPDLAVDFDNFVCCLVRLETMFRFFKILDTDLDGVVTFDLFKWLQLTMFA
Calpain I (Rattus norvegicus, UniProt P97571), sequence (Q64537 whole entry partner): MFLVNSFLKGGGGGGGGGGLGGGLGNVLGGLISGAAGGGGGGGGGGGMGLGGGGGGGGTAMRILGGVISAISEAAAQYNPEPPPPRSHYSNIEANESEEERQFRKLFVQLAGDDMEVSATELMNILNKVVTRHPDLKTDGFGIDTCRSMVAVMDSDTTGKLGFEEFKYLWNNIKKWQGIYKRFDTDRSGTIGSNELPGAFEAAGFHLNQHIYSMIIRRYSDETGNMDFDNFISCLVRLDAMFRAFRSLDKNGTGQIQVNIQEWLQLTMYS

- Kapp/[I] CI (Calpain I [1]): 25900
Structure (SMILES): CC(=O)N[C@@H](CC(C)C)C(=O)N[C@@H](Cc1ccccc1)C(=O)CCl [Ac-Leu-Phe-CH2 Cl] (HELM PEPTIDE1{[ac].L.F.[ClC[*:1]]}$$$$V2.0)
- inhibition of Calpain within platelets (Calpain within platelets): significant inhibition
- Kapp/[I] CII (Calpain II): 33400
- inhibition of spectrin proteolysis in crude brain extracts [2]: significant inhibition

Structure (SMILES): CCCC[C@@H](C=O)NC(=O)[C@H](CC(C)C)NC(=O)[C@H](CC(C)C)NC(C)=O [CI1, Ac-Leu-Leu-Nle-H, reference compound] (Ac-Leu-Leu-[Nle]-aldehyde)
- % Recovery of synaptic transmission after anoxia (hippocampal slices [3]; Concentration 200, ten minutes anoxia): 35%
- period of anoxia required to produce fiber volley disappearance (FIG. 6) (hippocampal slices [3]; hippocampal slices): does not significantly lengthen the period of anoxia required to suppress electrical activity
- protection of slices from anoxia (FIG. 3) (hippocampal slices [4]; 10 minutes anoxic atmosphere): protected from the effects of anoxia
- Survival of slices after ten minutes anoxia (hippocampal slices [4]; Dose 200 μM, incubation 2 hours): 53%
- blue formazan product relative to control without glutamate (N18-RE-105 cells): protect N18-RE-105 cells against glutamate toxicity
- kainate-induced behavioral symptoms and convulsions (FIG. 7) [5]: incidence and severity of convulsions was reduced
- inhibition in the system of Example 2 ([2]; concentration not given): showed inhibition

- Kapp/[I] CI (Calpain I [1]): 284000
Structure (SMILES): CC(C)C[C@H](NC(=O)CNC(=O)OCc1ccccc1)C(=O)N[C@@H](Cc1ccccc1)C(=O)CCl [Z-Gly-Leu-Phe-CH2 Cl, reference compound] (HELM PEPTIDE1{[O=C(OCc1ccccc1)[*:2]].G.L.F.[ClC[*:1]]}$$$$V2.0)
- inhibition of Calpain within platelets (Calpain within platelets): significant inhibition
- Kapp/[I] CII (Calpain II): 946000
- inhibition of spectrin proteolysis in crude brain extracts [2]: significant inhibition

- Kapp/[I] CI (Calpain I [6]): 225000
Structure (SMILES): CC(C)CC(NC(=O)OCc1ccccc1)C(=O)NC(Cc1ccccc1)C(=O)CCl (stereo not drawn) [Z-Leu-Phe-CH2 Cl] (Cbz-Leu-Phe-CH2Cl; configuration not given here)
- inhibition of Calpain within platelets (Calpain within platelets): significant inhibition
- Kapp/[I] CII (Calpain II): 585000
- inhibition of spectrin proteolysis in crude brain extracts [2]: significant inhibition
